Laboratory results as given in US20090138208A1, “IMMUNOGLOBULIN G BINDING POCKET” (GE HEALTHCARE BIO-SCIENCES AB, priority 2002, published 2009).
Where a name gives a salt, the structure may show the parent alone.

Target: human Fab of κ-type (Homo sapiens, UniProt P01834+P01857)
Assay: STD NMR screening (1D saturation transfer difference) for binding to antibody
Set-up: key: 0 no; 1 weak; 2 strong signal
Conditions: 0.5 mM ligand; for NMR signal conc 1: 500 nM antibody, 298 K; for NMR signal conc 2: 100 nM antibody; for NMR signal conc 3: 20 nM antibody
Protocol: All NMR experiments were performed at 298 K on a Bruker Avance 500 MHz spectrometer. The 1D saturation transfer difference method (STD NMR) was used as screening assay (Mayer M. and Meyer B. 1999. Characterization of Ligand Binding by Saturation Transfer Difference NMR Spectroscopy. Angew. Chem., Int. Ed. 38: 1784-1788) using several antibody concentrations in order to differentiate between compounds with different binding strength (Peng J. W., Lepre C. A., Fejzo J., Abdul-Manan N. and Moore J. M. 2001. Nuclear Magnetic Resonance-Based Approaches for Lead Generation in Drug Discovery. Methods in Enzymology. 338: 202-230). The antibody used was a human Fab of κ-type. In all cases ligands were tested one-by-one. On-resonance irradiation was set at 0 ppm and off-resonance irradiation was set at −40 ppm. Irradiation time in each scan was 2 s and 16 K data points were collected with 1024 scans in total. Compounds for testing were dissolved in DMSOd6 to a concentration of 50 mM and 5 μL of the concentrated ligand solution was added to 495 μL buffer solution. The samples thus consisted of 0.5 mM ligand, 20 mM phosphate buffer, 100 mM NaCl and […] in D2O at pD 7.5, uncorrected reading on pH-meter.
Compounds were initially tested for binding with 0.5 μM antibody. Interesting ligands were further tested with protein concentrations of 100 or 20 nM. A one-dimensional ^1H-spectrum was acquired first and subsequently a saturation transfer difference (STD) spectrum was acquired. Each analysis took 60 minutes on the spectrometer. […] The analysis was setup for automation so that several samples could be analysed over night (usually 10-15 samples/night).
As many as 46 of the virtual screening hits were tested with NMR according to the procedure described above. The results from NMR screening together with additional compound data are compiled in Table 1 below. In total 24 compounds gave a positive result in the first round with the highest antibody concentration (500 nM). These 24 compounds were subjected to a second round with an antibody concentration of 100 nM. The 4 compounds showing the strongest signal in the second round were tested for binding in a third round with 20 nM antibody. Three of the compounds in the third round gave a positive result and where thus designated as the strongest binders to the antibody out of the 46 tested compounds.

Chain of human Fab of κ-type (P01857 with tags, fused parts or gaps, other chains not shown): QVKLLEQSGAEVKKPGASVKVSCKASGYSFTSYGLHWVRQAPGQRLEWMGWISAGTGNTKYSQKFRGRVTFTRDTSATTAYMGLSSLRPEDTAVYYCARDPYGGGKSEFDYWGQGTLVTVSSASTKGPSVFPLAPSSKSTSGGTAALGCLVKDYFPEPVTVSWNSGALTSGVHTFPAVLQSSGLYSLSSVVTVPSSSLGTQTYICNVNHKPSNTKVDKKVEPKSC

O=C(c1ccc2ccccc2c1)n1ccnc1 [AB_0000900, 1-(2-naphthoyl)imidazole]
NMR signal conc 1: 0

O=C(c1ccccn1)C(O)c1ccccn1 (stereo not drawn) [AB_0000510, alpha-pyridoin]
NMR signal conc 1: 0

O=C(Nc1ccc(F)cc1)Oc1noc(-c2ccccc2)n1 [AB_0000740, 5-phenyl-1,2,4-oxadiazol-3-yl n-(4-fluorophenyl)carbamate]
NMR signal conc 1: 0

O=C(Cc1ncon1)Nc1ccc(F)cc1F [AB_0000690, n1-(2,4-difluorophenyl)-2-(1,2,4-oxadiazol-3-yl)acetamide]
NMR signal conc 1: 0

c1ccc(-c2nnc(-c3ccccn3)nn2)nc1 [AB_0000700, 3,6-di-2-pyridyl-1,2,4,5-tetrazine]
NMR signal conc 1: 0

COC(=O)C1OC1c1cc(Cl)ccc1OC (centres unmarked) [AB_0001240, methyl 3-(5-chloro-2-methoxyphenyl)-2,3-epoxypropionate]
NMR signal conc 2: 1
NMR signal conc 1: 1

Clc1ccc(OCc2noc(CSc3ccccn3)n2)cc1 [AB_0001290, 3-[(4-chlorophenoxy)methyl]-5-[(2-pyridylthio)methyl]-1,2,4-oxadiazole]
NMR signal conc 2: 1
NMR signal conc 1: 2

COC(=O)c1ccc2ccccc2c1O [AB_0001200, methyl 1-hydroxy-2-naphthoate]
NMR signal conc 2: 0
NMR signal conc 1: 1

CCCCc1c(O)nc2ccccn2c1=O [AB_0000990, 3-butyl-2-hydroxy-4h-pyrido[1,2-a]pyrimidin-4-one]
NMR signal conc 1: 0

Clc1ccc(COn2ccnc2)cc1Cl [AB_0001150, 1-[(3,4-dichlorobenzyl)oxy]-1h-imidazole]
NMR signal conc 2: 0
NMR signal conc 1: 2

O=C(O)c1ccnn(-c2ccccc2)c1=O [AB_0001180, 3-oxo-2-phenyl-2,3-dihydro-4-pyridazinecarboxylic acid]
NMR signal conc 1: 0

CCOC(=O)c1c[nH]c2ccccc2c1=O [AB_0001100, ethyl 4-oxo-1,4-dihydroquinoline-3-carboxylate]
NMR signal conc 1: 0

OC(CNCc1ccccc1)C(F)(F)F (centres unmarked) [AB_0001000, 3-(benzylamino)-1,1,1-trifluoro-2-propanol]
NMR signal conc 2: 0
NMR signal conc 1: 1

Sc1nnc(-c2csc(-c3ccccc3)n2)o1 [AB_0000760, 5-(2-phenyl-1,3-thiazol-4-yl)-1,3,4-oxadiazol-2-ylhydrosulfide]
NMR signal conc 2: 0
NMR signal conc 1: 1

c1ccc(-c2nnc3ccccc3n2)cc1 [AB_0000600, 3-phenyl-1,2,4-benzotriazine]
NMR signal conc 2: 1
NMR signal conc 1: 1

Cc1cc(C)nc(SCC(=O)Nc2ccc(F)c(Cl)c2)n1 [AB_0000580, n1-(3-chloro-4-fluorophenyl)-2-[(4,6-dimethylpyrimidin-2-yl)thio]acetamide]
NMR signal conc 2: 0
NMR signal conc 1: 1

O=C1SC(Br)C(=O)N1c1ccccc1 (centres unmarked) [AB_0000880, 5-bromo-3-phenyl-thiazolidine-2,4-dione]
NMR signal conc 1: 0

O=C1C=C(Cl)C(=O)N1c1ccccc1 [AB_0000930, 3-chloro-1-phenyl-pyrrole-2,5-dione]
NMR signal conc 1: 0

CSCCNC(=O)c1nc2ccccc2c(=O)n1N [AB_0001130, 3-amino-n-[2-(methylthio)ethyl]-4-oxo-3,4-dihydroquinazoline-2-carboxamide]
NMR signal conc 1: 0

N=c1sccn1CC(=O)c1ccc2ccccc2c1 [AB_0001060, 2-(2-imino-thiazol-3-yl)-1-naphthalen-2-yl-ethanone]
NMR signal conc 2: 0
NMR signal conc 1: 2

S=C(Oc1ccccn1)c1csc(C2COc3ccccc3O2)n1 (centres unmarked) [AB_0001260, 2-pyridyl 2-(2,3-dihydro-1,4-benzodioxin-2-yl)-1,3-thiazole-4-carbothioate]
NMR signal conc 1: 0

FC(F)(F)c1cccc(-n2ccnc2)c1 [AB_0001220, 1-(3-trifluoromethylphenyl)imidazole]
NMR signal conc 2: 0
NMR signal conc 1: 2

CCn1ccnc1CC1COc2ccccc2O1 (centres unmarked) [AB_0001070, imiloxan hydrochloride]
NMR signal conc 2: 1
NMR signal conc 1: 1

O=C(CC1OC(=O)c2ccccc21)c1ccccn1 (centres unmarked) [AB_0000790, 3-[2-oxo-2-(2-pyridyl)ethyl]-1,3-dihydroisobenzofuran-1-one]
NMR signal conc 1: 0

Fc1cc(F)cc(Cc2nc(-c3cccs3)no2)c1 [AB_0001020, 5-(3,5-difluorobenzyl)-3-(2-thienyl)-1,2,4-oxadiazole]
NMR signal conc 2: 0
NMR signal conc 1: 1

COc1ccc(CC(C)=O)cc1Br [AB_0000910, 3-bromo-4-methoxyphenylacetone]
NMR signal conc 3: 0
NMR signal conc 2: 2
NMR signal conc 1: 2

CN(C)C(=O)N(C)c1ccc(Cl)c(Cl)c1 [AB_0001250, 1-(3,4-dichlorophenyl)-1,3,3-trimethylurea]
NMR signal conc 3: 1
NMR signal conc 2: 2
NMR signal conc 1: 2

O=C1C(=Cc2ccccc2)C(=O)c2ccccc21 [AB_0000730, 2-benzylidene-1,3-indandione]
NMR signal conc 1: 0

CC(C)=CC1=C(O)C(=O)c2ccccc2C1=O [AB_0001040, 2-hydroxy-3-(2-methyl-1-propenyl)-1,4-naphthoquinone]
NMR signal conc 2: 1
NMR signal conc 1: 1

O=C1C(=O)N(c2ccccc2)C(=O)N1c1ccccc1 [AB_0000540, 1,3-diphenylparabanic acid]
NMR signal conc 1: 0

CC1(C)CC(=O)c2sc(NC(=O)c3cccnc3)nc2C1 [AB_0000750, n-(5,5-dimethyl-7-oxo-4,5,6,7-tetrahydro-benzothiazol-2-yl)-nicotinamide]
NMR signal conc 1: 0

COC(=O)NC(=O)c1nc(-c2ccccc2)c(C)o1 [AB_0000670, methyl n-[(5-methyl-4-phenyl-1,3-oxazol-2-yl)carbonyl]carbamate]
NMR signal conc 2: 0
NMR signal conc 1: 2

OC(CNCc1ccc(Cl)cc1Cl)C(F)(F)F (centres unmarked) [AB_0001170, 3-[(2,4-dichlorobenzyl)amino]-1,1,1-trifluoro-2-propanol]
NMR signal conc 1: 0

O=C(Cc1ncon1)Nc1ccc(F)c(F)c1F [AB_0000630, n1-(2,3,4-trifluorophenyl)-2-(1,2,4-oxadiazol-3-yl)acetamide]
NMR signal conc 1: 0

CC1CN=C(SCc2ccccc2)N1.Cl (centres unmarked) [AB_0001080, 2-(benzylthio)-5-methyl-4,5-dihydro-1h-imidazol-3-ium chloride]
NMR signal conc 1: 0

O=C(c1cccs1)c1cnc2ccccn2c1=O [AB_0001300, 3-(2-thienylcarbonyl)-4h-pyrido[1,2-a]pyrimidin-4-one]
NMR signal conc 2: 0
NMR signal conc 1: 1

CC1=NN(c2cccc(Cl)c2)C(=O)C1 [AB_0000530, 1-(3-chlorophenyl)-3-methyl-2-pyrazolin-5-one]
NMR signal conc 1: 0

O=C1c2ccncc2C(=O)N1c1ccc(Cl)cc1 [AB_0000610, 2-(4-chlorophenyl)-2,3-dihydro-1h-pyrrolo[3,4-c]pyridine-1,3-dione]
NMR signal conc 1: 0

OCC(Oc1ccccc1)c1ccccc1 (centres unmarked) [AB_0000810, 2-phenoxy-2-phenyl-1-ethanol]
NMR signal conc 2: 1
NMR signal conc 1: 2

OC(CNCc1ccc(Cl)cc1)CSc1ccccc1 (centres unmarked) [AB_0001270, 1-[(4-chlorobenzyl)amino]-3-(phenylthio)propan-2-ol]
NMR signal conc 2: 0
NMR signal conc 1: 1

c1ccc(CCn2cc(-c3ccncc3)cn2)cc1 [AB_0001190, 4-[1-(2-phenylethyl)-(1h)-pyrazol-4-yl]pyridine]
NMR signal conc 2: 0
NMR signal conc 1: 2

O=Cc1cccc(C(F)(F)F)c1Cl [AB_0001030, 2-chloro-3-(trifluoromethyl)benzaldehyde]
NMR signal conc 2: 0
NMR signal conc 1: 1
